Read-outs that look alike come from different tables or passages of the source.
Legend:
Type in all cases: in vivo
[1] = tested on: Puccinia triticina; assay: Wheat brown rust (PUCCRT) disease control on wheat seedlings; settings: for pest or weed control at 121.5 g/ha: Low volume application; for pest or weed control at 100 ppm: High volume application
Method in brief: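 Yuma wheat seedlings (first leaf emerged) sprayed to run-off with compound in acetone plus nine volumes water containing 110 ppm Triton X-100, or track-sprayed as EC formulations with 0.1% Trycol 5941. Rust spores inoculated before or after treatment; overnight dark dew, 22 °C, 100% RH, then greenhouse at 24 °C.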

[2] = tested on: Phakopsora pachyrhizi; assay: Asian soybean rust (PHAKPA) disease control on soybean seedlings; settings: Phakopsora pachyrhizi, High volume application at 25 ppm
Method: Example C: Evaluation of Fungicidal Activity: Asian Soybean Rust (Phakopsora pachyrhizi; Bayer Code […]) Technical grades of materials were dissolved in acetone, which were then mixed with nine volumes of water containing 0.011% Tween 20. The fungicide solutions were applied onto soybean seedlings using an automated booth sprayer to run-off. All sprayed plants were allowed to air dry prior to further handling. Soybean plants (variety Williams 82) were grown in soil-less Metro mix, with one plant per pot. Two week old seedlings were used for testing. Plants were inoculated either 3 days prior to or 1 day after fungicide treatments. Plants were incubated for 24 h in a dark dew room at 22° C. and 100% relative humidity then transferred to a growth room at 23° C. for disease to develop. Disease severity was assessed on the sprayed leaves.

[3] = tested on: Zymoseptoria tritici; assay: Leaf blotch of wheat (SEPTTR) disease control on wheat seedlings; settings: for pest or weed control at 121.5 g/ha: Low volume application; for pest or weed control at 100 ppm: High volume application
[4] = 24 h, 1 Day Protectant, read-out: PUCCRT disease control rating, 1DP
[5] = 72 h, 3 Day Curative, read-out: PUCCRT disease control rating, 3DC
[6] = 24 h, 1 day protectant, read-out: PHAKPA 1DP (1 Day Protectant) disease control
[7] = 72 h, 3 day curative, read-out: PHAKPA 3DC (3 Day Curative) disease control
[8] = 24 h, 1 Day Protectant, read-out: SEPTTR disease control rating, 1DP
[9] = 72 h, 3 Day Curative, read-out: SEPTTR disease control rating, 3DC

Row | Compound | pest or weed control at 121.5 g/ha [1, 4] [%] | pest or weed control at 121.5 g/ha [1, 5] [%] | pest or weed control at 25 ppm [2, 6] [%] | pest or weed control at 25 ppm [2, 7] [%] | pest or weed control at 121.5 g/ha [3, 8] [%] | pest or weed control at 121.5 g/ha [3, 9] [%] | pest or weed control at 100 ppm [1, 4] [%] | pest or weed control at 100 ppm [1, 5] [%] | pest or weed control at 100 ppm [3, 8] [%] | pest or weed control at 100 ppm [3, 9] [%]
1 | COc1ccnc(C(=O)N[C@@H](C)C(=O)O[C@H](C)[C@H](C)c2c(C)cccc2C)c1OC(C)=O [Example 253] | > 80 | < 80 | > 80 | > 80 | < 80 | < 80 | – | – | – | –
2 | COc1ccnc(C(=O)N[C@@H](C)C(=O)O[C@H](C)[C@H](C)c2ccc(F)cc2C(F)(F)F)c1OC(C)=O [Example 251] | < 80 | < 80 | > 80 | < 80 | < 80 | < 80 | – | – | – | –
3 | COc1cc[n+]([O-])c(C(=O)N[C@@H](C)C(=O)O[C@@H](C)[C@@H](C)C2CCCC2)c1O [Example 275] | < 80 | < 0 | < 80 | < 80 | < 0 | < 0 | – | – | – | –
4 | COc1ccnc(C(=O)N[C@@H](C)C(=O)O[C@H](C)[C@H](C)c2ccc(F)cc2C(F)(F)F)c1OC(=O)C(C)C [Example 240] | < 0 | < 0 | < 80 | < 80 | < 80 | < 80 | – | – | – | –
5 | COc1ccnc(C(=O)N[C@@H](C)C(=O)O[C@@H](C)[C@@H](C)c2ccc(F)cc2C)c1O [Example 128] | – | – | – | > 80 | – | – | > 80 | > 80 | > 80 | > 80
6 | COc1ccnc(C(=O)N[C@@H](C)C(=O)O[C@@H](C)[C@@H](C)c2ccccc2)c1OC(C)=O [Example 258] | < 80 | > 80 | > 80 | > 80 | < 80 | > 80 | > 80 | > 80 | < 80 | < 80
7 | COc1cc(F)ccc1[C@@H](C)[C@@H](C)OC(=O)[C@H](C)NC(=O)c1c(O)c(OC)cc[n+]1[O-] [Example 277] | < 0 | < 80 | < 80 | < 80 | < 80 | < 80 | < 80 | < 0 | < 80 | < 80
8 | COc1ccnc(C(=O)N[C@@H](C)C(=O)O[C@@H](C)[C@@H](C)c2c(C)cc(F)cc2C)c1OC(C)=O [Example 249] | > 80 | > 80 | > 80 | > 80 | > 80 | > 80 | – | – | – | –
9 | COc1ccnc(C(=O)N[C@@H](C)C(=O)O[C@@H](C)[C@@H](C)c2c(C)cccc2C)c1OC(=O)C(C)C [Example 237] | < 80 | < 80 | > 80 | > 80 | < 80 | < 80 | – | – | – | –
10 | COc1ccnc(C(=O)N[C@@H](C)C(=O)O[C@@H](C)[C@@H](C)c2c(C)cccc2C)c1OC(C)=O [Example 248] | > 80 | < 80 | > 80 | > 80 | < 80 | > 80 | – | – | – | –
11 | COc1cc(F)ccc1[C@@H](C)[C@@H](C)OC(=O)[C@H](C)n1c(=O)oc2c(OC)ccnc2c1=O [Example 262] | < 0 | < 0 | < 80 | < 80 | < 80 | < 80 | – | – | – | –
12 | COc1ccnc(C(=O)N[C@@H](C)C(=O)O[C@@H](C)[C@@H](C)c2ccc(C)cc2C)c1OC(=O)C(C)C [Example 179] | > 80 | > 80 | > 80 | > 80 | < 80 | < 80 | – | – | – | –
13 | COc1ccnc(C(=S)N[C@@H](C)C(=O)O[C@@H](C)[C@@H](C)C2CCCC2)c1OC(C)=O [Example 272] | < 80 | < 80 | > 80 | < 80 | < 80 | < 80 | – | – | – | –
14 | COc1ccccc1[C@H](C)[C@H](C)OC(=O)[C@H](C)NC(=O)c1nccc(OC)c1OC(C)=O [Example 257] | < 80 | < 80 | < 80 | < 0 | < 80 | < 80 | – | – | – | –
15 | COc1ccnc(C(=O)N[C@@H](C)C(=O)O[C@H](C)[C@H](C)c2ccccc2C(F)(F)F)c1OC(=O)C(C)C [Example 239] | < 0 | < 0 | < 80 | < 80 | < 80 | < 80 | – | – | – | –
16 | COc1ccnc(C(=O)N[C@@H](C)C(=O)OC(C)C(C)c2c(C)cc(F)cc2C)c1OC(=O)C(C)C (stereo partly shown) [Example 244] | > 80 | < 80 | > 80 | > 80 | > 80 | > 80 | – | – | – | –
17 | COc1ccnc(C(=O)N[C@@H](C)C(=O)O[C@@H](C)[C@@H](C)c2ccc(C)cc2C)c1OC(C)=O [Example 177] | > 80 | > 80 | > 80 | > 80 | > 80 | > 80 | – | – | – | –
18 | COc1ccc([C@@H](C)[C@@H](C)OC(=O)[C@H](C)NC(=O)c2nccc(OC)c2OCOC(C)=O)c(C)c1 [Example 233] | > 80 | < 80 | > 80 | < 80 | < 80 | < 80 | – | – | – | –
19 | COc1ccnc(C(=O)N[C@@H](C)C(=O)O[C@H](C)[C@H](C)c2c(C)cc(F)cc2C)c1OC(C)=O [Example 254] | > 80 | > 80 | > 80 | > 80 | > 80 | > 80 | – | – | – | –
20 | COc1ccnc(C(=O)N[C@@H](C)C(=O)O[C@H](C)[C@H](C)C2CCCC2)c1OC(C)=O [Example 252] | < 0 | < 80 | < 80 | < 80 | < 0 | < 80 | – | – | – | –
21 | COc1ccnc(C(=O)N[C@@H](C)C(=O)O[C@@H](C)[C@@H](C)C2CCCC2)c1OC(=O)C(C)C [Example 236] | < 80 | < 80 | > 80 | < 0 | < 80 | < 0 | – | – | – | –
22 | COc1ccnc(C(=O)N[C@@H](C)C(=O)O[C@@H](C)[C@@H](C)C2CCCC2)c1OC(C)=O [Example 247] | < 80 | < 80 | > 80 | < 80 | < 80 | < 80 | – | – | – | –
23 | COc1ccnc(C(=S)N[C@@H](C)C(=O)O[C@@H](C)[C@@H](C)c2ccccc2C(F)(F)F)c1OC(C)=O [Example 270] | < 80 | < 80 | > 80 | < 80 | < 80 | < 80 | – | – | – | –
24 | COc1ccnc(C(=O)N[C@@H](C)C(=O)O[C@@H](C)[C@@H](C)c2ccc(F)cc2C(F)(F)F)c1OC(=O)C(C)C [Example 235] | < 80 | < 80 | > 80 | > 80 | > 80 | > 80 | – | – | – | –

From patent US20200399222A1, “PICOLINAMIDES AS FUNGICIDES” (Dow AgroSciences LLC, priority 2018, published 2020)
